Reference: the supplement of paper PMC10307832

What was measured:
Assay in all cases: relative viability (nuclei count vs DMSO), 5 days (fraction); higher = more cells survive
Bleomycin + Vorinostat = compound: CC1=C(N=C(N=C1N)[C@H](CC(=O)N)NC[C@@H](C(=O)N)N)C(=O)N[C@@H]([C@H](C2=CN=CN2)OC3C(C(C(C(O3)CO)O)O)OC4C(C(C(C(O4)CO)O)OC(=O)N)O)C(=O)N[C@H](C)[C@H]([C@H](C)C(=O)N[C@@H]([C@@H](C)O)C(=O)NCCC5=NC(=CS5)C6=NC(=CS6)C(=O)NCCC[S+](C)C)O [Bleomycin] + O=C(CCCCCCC(=O)Nc1ccccc1)NO [Vorinostat] (partner 1 µM); details: main component drawn
How it was run: (§1)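 After 5 days of treatment, lung cancer cells in 1536-well plates were fixed and stained in a single step (final 0.05% Triton X-100, 1% formaldehyde, 1 ug/ml Hoechst) and their nuclei counted on 4× images. Treatment had been applied by pin tool the day after seeding as one drug alone or as a fixed anchor-drug dose with five library-drug doses (not always all listed) in √10 steps. Relative viability is the nuclei count of treated wells divided by that of vehicle wells, and values are medians of duplicate plates.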

Etoposide + Trametinib = compound: COc1cc([C@@H]2c3cc4c(cc3[C@@H](O[C@@H]3O[C@@H]5CO[C@@H](C)O[C@H]5[C@H](O)[C@H]3O)[C@H]3COC(=O)[C@H]23)OCO4)cc(OC)c1O [Etoposide] + CC(=O)Nc1cccc(-n2c(=O)n(C3CC3)c(=O)c3c(Nc4ccc(I)cc4F)n(C)c(=O)c(C)c32)c1 [Trametinib] (partner 0.02 µM)
How it was run: as §1

Etoposide + Navitoclax = compound: COc1cc([C@@H]2c3cc4c(cc3[C@@H](O[C@@H]3O[C@@H]5CO[C@@H](C)O[C@H]5[C@H](O)[C@H]3O)[C@H]3COC(=O)[C@H]23)OCO4)cc(OC)c1O [Etoposide] + CC1(C)CCC(c2ccc(Cl)cc2)=C(CN2CCN(c3ccc(C(=O)NS(=O)(=O)c4ccc(N[C@H](CCN5CCOCC5)CSc5ccccc5)c(S(=O)(=O)C(F)(F)F)c4)cc3)CC2)C1 [Navitoclax] (partner 0.5 µM)
How it was run: as §1

Bleomycin + Foretinib = compound: CC1=C(N=C(N=C1N)[C@H](CC(=O)N)NC[C@@H](C(=O)N)N)C(=O)N[C@@H]([C@H](C2=CN=CN2)OC3C(C(C(C(O3)CO)O)O)OC4C(C(C(C(O4)CO)O)OC(=O)N)O)C(=O)N[C@H](C)[C@H]([C@H](C)C(=O)N[C@@H]([C@@H](C)O)C(=O)NCCC5=NC(=CS5)C6=NC(=CS6)C(=O)NCCC[S+](C)C)O [Bleomycin] + COc1cc2c(Oc3ccc(NC(=O)C4(C(=O)Nc5ccc(F)cc5)CC4)cc3F)ccnc2cc1OCCCN1CCOCC1 [Foretinib] (partner 0.25 µM); details: main component drawn
How it was run: as §1

Cell Line | relative viability (Bleomycin + Vorinostat; first compound 0.01 µM) | relative viability (Bleomycin + Vorinostat; first compound 0.03162 µM) | relative viability (Bleomycin + Vorinostat; first compound 0.1 µM) | relative viability (Bleomycin + Vorinostat; first compound 0.3162 µM) | relative viability (Bleomycin + Vorinostat; first compound 1 µM) | relative viability (Etoposide + Trametinib; first compound 0.01 µM) | relative viability (Etoposide + Trametinib; first compound 0.03162 µM) | relative viability (Etoposide + Trametinib; first compound 0.1 µM) | relative viability (Etoposide + Trametinib; first compound 0.3162 µM) | relative viability (Etoposide + Trametinib; first compound 1 µM) | relative viability (Etoposide + Navitoclax; first compound 0.01 µM) | relative viability (Etoposide + Navitoclax; first compound 0.03162 µM) | relative viability (Etoposide + Navitoclax; first compound 0.1 µM) | relative viability (Etoposide + Navitoclax; first compound 0.3162 µM) | relative viability (Etoposide + Navitoclax; first compound 1 µM) | relative viability (Bleomycin + Foretinib; first compound 0.01 µM) | relative viability (Bleomycin + Foretinib; first compound 0.03162 µM) | relative viability (Bleomycin + Foretinib; first compound 0.1 µM) | relative viability (Bleomycin + Foretinib; first compound 0.3162 µM) | relative viability (Bleomycin + Foretinib; first compound 1 µM)
NCI-H2085 | 0.777 | 0.721 | 0.679 | 0.378 | 0.386 | 0.484 | 0.643 | 0.423 | 0.266 | 0.271 | 1.16 | 1.06 | 1.11 | 0.67 | 0.354 | 1.03 | 0.845 | 0.692 | 0.461 | 0.396
NCI-H2087 | 0.441 | 0.76 | 0.329 | 0.0956 | 0.15 | 0.206 | 0.213 | 0.173 | 0.2 | 0.147 | – | 1.05 | 0.941 | 0.727 | 0.264 | – | 0.827 | 0.872 | 0.205 | 0.158
NCI-H2126 | 0.785 | 0.692 | 0.771 | 0.442 | 0.5 | 0.539 | 0.683 | 0.427 | 0.455 | 0.312 | 0.893 | 0.917 | 0.49 | 0.769 | 0.448 | 1.17 | 1.26 | 1.23 | 0.903 | 0.491
NCI-H2170 | 0.639 | 0.591 | 0.605 | 0.383 | 0.34 | 0.843 | 1.03 | – | 0.877 | 0.723 | 0.625 | 0.728 | – | 0.525 | 0.399 | 0.992 | 0.98 | 0.736 | 0.855 | 0.829
NCI-H2228 | 0.637 | 0.557 | 0.486 | 0.17 | 0.22 | 0.485 | 0.576 | 0.32 | 0.279 | 0.168 | 0.842 | 0.934 | 0.849 | 0.473 | 0.138 | 0.853 | 0.741 | 0.695 | 0.274 | 0.191
NCI-H2347 | 0.487 | 0.518 | 0.414 | 0.338 | 0.39 | 0.25 | 0.301 | 0.25 | 0.269 | 0.278 | 0.809 | 0.626 | 0.405 | 0.354 | 0.28 | 0.852 | 0.97 | 0.628 | 0.319 | 0.692
NCI-H2405 | 0.792 | 1 | 0.816 | 0.59 | 0.321 | 0.64 | 0.728 | 0.505 | 0.544 | 0.4 | 0.801 | 0.912 | 0.532 | 0.513 | 0.187 | 0.929 | 1.04 | 0.992 | 0.796 | 0.585
NCI-H3122 | 1.15 | 0.882 | 0.823 | 0.517 | 0.334 | 0.23 | 0.223 | 0.153 | 0.23 | 0.215 | 1.05 | 1.04 | 1.05 | 0.877 | 0.477 | 0.956 | 0.99 | 0.914 | 0.483 | 0.357
PC-3 [JPC-3] | 0.788 | 0.928 | 0.737 | 0.46 | 0.417 | 0.693 | 0.756 | 0.633 | 0.749 | 0.671 | 0.784 | 0.825 | 0.6 | 0.787 | 0.703 | 0.929 | 1.24 | 0.95 | 0.75 | 0.541
PC-14 | 0.414 | 0.406 | 0.198 | 0.0393 | 0.0658 | 0.715 | 0.678 | 0.798 | 0.491 | 0.229 | 0.984 | 1.05 | 1.19 | 0.906 | 0.652 | 0.773 | 0.566 | 0.447 | 0.137 | 0.0938
RERF-LC-KJ | 0.489 | 0.55 | 0.421 | 0.344 | 0.25 | 0.7 | 0.899 | 0.822 | 0.835 | 0.6 | 0.829 | 0.94 | 0.957 | 0.829 | 0.488 | 0.735 | 0.693 | 0.633 | 0.377 | 0.307
SK-LU-1 | 0.734 | 0.746 | 0.521 | 0.454 | 0.348 | 0.446 | 0.411 | 0.394 | 0.258 | 0.236 | 0.633 | 0.975 | 0.468 | 0.144 | 0.166 | 0.704 | 0.874 | 0.815 | 0.461 | 0.365
SK-MES-1 | 0.839 | 0.936 | 0.903 | 0.471 | 0.235 | 0.5 | 0.518 | 0.594 | 0.46 | 0.277 | 1.14 | 1.23 | 0.913 | 0.532 | 0.211 | 0.907 | 0.846 | 0.765 | 0.357 | 0.237
SW 1573 | 0.609 | 0.447 | 0.481 | 0.271 | 0.187 | 0.609 | 0.548 | 0.436 | 0.219 | 0.14 | 0.926 | 0.946 | 0.639 | 0.209 | 0.0658 | 0.811 | 0.813 | 0.748 | 0.468 | 0.308
